IC50 data for 36 molecules are collected here from ChEMBL document CHEMBL1136073, “2,4-Dicarboxy-pyrroles as selective non-competitive mGluR1 antagonists: further characterization of 3,5-dimethyl pyrrole-2,4-dicarboxylic acid 2-propyl ester 4-(1,2,2-trimethyl-propyl) ester and structure-activity relationships” (Bioorg Med Chem Lett, 2003).

Holding throughout (format): cell-based
Assay [1] has as its target T1, Metabotropic glutamate receptor 1 (Rattus norvegicus, UniProt P23385). The assay can be described thus: In vitro inhibition of rat metabotropic glutamate receptor 1 in CHO cells using the CDP-DAG accumulation method.
For assay [2], the target named is T1, Metabotropic glutamate receptor 1. The assay can be described thus: In vitro inhibition of rat Metabotropic glutamate receptor 1 in CHO cells using the CDP-DAG accumulation method: Not active uM.
The target is the same in assay [3]. The assay can be described thus: In vitro inhibitory concentration required against rat mGluR1a in CHO cells using the CDP-DAG accumulation method.
The target is the same in assay [4]. Kind of assay: In vitro inhibitory concentration required against rat mGluR1a in CHO cells using the CDP-DAG accumulation method: Not active uM.

pIC50: −log10 of the molar value.

T1 sequence (P23385 whole entry): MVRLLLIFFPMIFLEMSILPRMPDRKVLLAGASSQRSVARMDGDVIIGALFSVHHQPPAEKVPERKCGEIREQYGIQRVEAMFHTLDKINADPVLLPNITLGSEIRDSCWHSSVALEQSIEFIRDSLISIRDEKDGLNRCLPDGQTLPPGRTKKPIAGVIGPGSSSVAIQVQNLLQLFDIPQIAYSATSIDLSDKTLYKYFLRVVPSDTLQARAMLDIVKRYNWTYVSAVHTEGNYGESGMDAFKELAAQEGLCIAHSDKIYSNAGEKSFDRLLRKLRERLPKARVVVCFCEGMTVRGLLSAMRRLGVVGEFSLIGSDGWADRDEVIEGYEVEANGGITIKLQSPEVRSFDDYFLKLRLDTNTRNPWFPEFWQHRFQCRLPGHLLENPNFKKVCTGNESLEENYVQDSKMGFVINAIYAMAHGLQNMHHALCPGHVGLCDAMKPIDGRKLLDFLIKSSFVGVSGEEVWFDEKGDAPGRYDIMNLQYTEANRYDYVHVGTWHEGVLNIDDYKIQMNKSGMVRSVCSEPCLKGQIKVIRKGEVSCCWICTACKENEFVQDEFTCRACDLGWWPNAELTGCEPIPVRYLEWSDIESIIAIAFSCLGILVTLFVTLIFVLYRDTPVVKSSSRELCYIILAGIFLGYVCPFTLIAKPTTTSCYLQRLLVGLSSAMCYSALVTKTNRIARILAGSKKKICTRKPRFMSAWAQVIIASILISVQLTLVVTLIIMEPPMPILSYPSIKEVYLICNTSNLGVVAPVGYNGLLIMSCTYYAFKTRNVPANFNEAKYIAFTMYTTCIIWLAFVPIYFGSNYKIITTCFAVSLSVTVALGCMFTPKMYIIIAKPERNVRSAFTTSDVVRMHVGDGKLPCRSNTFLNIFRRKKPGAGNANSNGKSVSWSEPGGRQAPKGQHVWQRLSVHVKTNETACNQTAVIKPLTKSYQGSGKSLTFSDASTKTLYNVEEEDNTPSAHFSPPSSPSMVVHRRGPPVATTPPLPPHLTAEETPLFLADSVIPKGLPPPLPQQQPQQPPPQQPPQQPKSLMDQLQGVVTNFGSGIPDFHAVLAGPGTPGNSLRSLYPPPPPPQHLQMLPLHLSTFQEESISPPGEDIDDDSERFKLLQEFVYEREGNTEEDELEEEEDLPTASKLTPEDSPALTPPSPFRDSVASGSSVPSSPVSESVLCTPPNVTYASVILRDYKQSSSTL

In turn, `CCOC(=O)c1[nH]cc(C(=O)OC(C)(C)C)c1C` showed a pIC50 in assay [1] of 6.47.
Still for that read-out and setting: the same measure for `Cc1c(C(=O)OC(C)(C)C)c[nH]c1C(=O)Sc1ccccn1`: 5.52.
On the same count and under the same terms, to `CCCOC(=O)c1c(C)c(C(=O)OC(C)(C)C)c(C)n1CCCO` belongs 5.24.
Consider `Cc1c(C(=O)OC(C)(C)C)c[nH]c1C(=O)O`, for which, in assay [2], the IC50 entry was “Not Active”.
In turn, `CCCOC(=O)c1c(C)c(C(=O)OC(C)(C)C)c(C)n1C` gave a pIC50 in assay [3] of 6.00.
As to `CCCOC(=O)c1c(C)c(C(=O)OC(C)(C)C)c(C)n1CC(=O)N(C)C`, the IC50 entry in assay [2] was “Not Active”.
Consider `CCCOC(=O)c1[nH]cc(C(=O)OC(C)C(C)(C)C)c1C` (stereo unspecified), for which the pIC50 in assay [1] was 8.40.
Same read-out and setting: the same measure for `CCCOC(=O)c1[nH]c(Cl)c(C(=O)OC(C)C(C)(C)C)c1C` (stereo unspecified): 6.80; for `CCCOC(=O)c1[nH]c(C(=O)OC)c(C(=O)OC(C)(C)C)c1C`: 5.49; for `Cc1c(C(=O)OC(C)(C)C)c[nH]c1C(=O)OCC1CC1`: 7.32.
Same read-out and setting: to `CCCOC(=O)c1[nH]c(COC(C)=O)c(C(=O)OC(C)(C)C)c1C` belongs 5.57.
On the same count and under the same terms, to `C=CCOC(=O)Cn1c(C)c(C(=O)OC(C)(C)C)c(C)c1C(=O)OCCC` belongs 4.90.
With `Cc1c(C(=O)OC(C)(C)C)c[nH]c1C(=O)OCc1ccco1`, the pIC50 in assay [1] is 5.92. This pIC50 is 1.02 log units higher than that of the molecule before.
Take `C=CCN1CCN(CCn2c(C)c(C(=O)OC(C)(C)C)c(C)c2C(=O)OCCC)CC1`: the IC50 result in assay [4] was “Not Active”.
Regarding `CCCOC(=O)c1[nH]c(CNCc2ccccc2)c(C(=O)OC(C)(C)C)c1C`, the IC50 result in assay [2] is on record as “Not Active”.
Turning to `CCCOC(=O)c1c(C)c(C(=O)OC(C)(C)C)c(C)n1CCCO[Si](c1ccccc1)(c1ccccc1)C(C)(C)C`, the IC50 result in assay [2] was “Not Active”.
As to `CCCOC(=O)c1c(C)c(C(=O)OC(C)(C)C)c(C)n1CC(=O)O`, the IC50 result in assay [2] was “Not Active”.
With `CCCOC(=O)c1c(C)c(C(=O)OC(C)(C)C)c(C)n1C(=O)OC(C)(C)C`, the pIC50 in assay [3] is 5.64.
Consider `CCCOC(=O)c1c(C)c(C(=O)OC(C)(C)C)c(C)n1CCO[Si](c1ccccc1)(c1ccccc1)C(C)(C)C`, for which the IC50 entry in assay [2] is “Not Active”.
`Cc1c(C(=O)OC(C)C(C)(C)C)c[nH]c1C(=O)Oc1ccncn1` (stereo unspecified) had a pIC50 in assay [1] of 5.84.
Still for that read-out and setting: to `CCCOC(=O)c1[nH]c(C)c(C(=O)OC(C)C(C)(C)C)c1C` (stereo unspecified) belongs 4.80; to `CCCOC(=O)c1[nH]c(C(=O)Sc2ccccn2)c(C(=O)OC(C)(C)C)c1C`, 5.49.
Take `CCCOC(=O)c1[nH]c(CN)c(C(=O)OC(C)(C)C)c1C`: the IC50 result in assay [2] is “Not Active”.
Turning to `Cc1c(C(=O)OC(C)C(C)(C)C)c[nH]c1C(=O)OC(C)(C)C` (stereo unspecified), the negative-log IC50 (pIC50) in assay [1] was 7.77.
Still for that read-out and setting: the same measure for `Cc1c(C(=O)OC(C)C(C)(C)C)c[nH]c1C(=O)Oc1cccnc1` (stereo unspecified): 6.14.
`CCN1CCC(OC(=O)c2[nH]cc(C(=O)OC(C)C(C)(C)C)c2C)C1` (stereo unspecified) had a pIC50 in assay [1] of 6.59.
Consider `CCCOC(=O)c1c(C)c(C(=O)OC(C)(C)C)c(C)n1CCN1CCOCC1`, for which, in assay [4], the IC50 result is recorded as “Not Active”.
The molecule `CCCOC(=O)c1[nH]cc(C(=O)OC(C)(C)C)c1C` had a pIC50 in assay [1] of 7.12.
The molecule `CCCOC(=O)c1[nH]c(C=O)c(C(=O)OC(C)(C)C)c1C` showed a pIC50 in assay [1] of 5.70.
As for `Cc1c(C(=O)OC(C)C(C)(C)C)c[nH]c1C(=O)OC(C)CN(C)C` (stereo unspecified), the pIC50 in assay [1] is 6.41.
Same read-out and setting: to `CCCOC(=O)c1[nH]c(CO)c(C(=O)OC(C)(C)C)c1C` belongs 5.10; to `Cc1c(C(=O)OC(C)(C)C)c[nH]c1C(=O)OC(C)(C)C`, 7.00.
Consider `CCCOC(=O)c1c(C)c(C(=O)OC(C)(C)C)c(C)n1CN1CCCCC1`, for which the IC50 entry in assay [2] is recorded as “Not Active”.
Same read-out and setting: the same measure for `CCCOC(=O)c1[nH]c(C(=O)O)c(C(=O)OC(C)(C)C)c1C`: “Not Active”.
In assay [1], `Cc1c(C(=O)OC(C)C(C)(C)C)c[nH]c1C(=O)Oc1c(F)c(F)c(F)c(F)c1F` (stereo unspecified) had a pIC50 of 6.80.
Still for that read-out and setting: the same measure for `CCCOC(=O)c1[nH]c(C(=O)NCC2CC2)c(C(=O)OC(C)(C)C)c1C`: 5.60.
